# Laboratory results published in patent publication US5258406A, “Sulfonimidamides” (priority 1992, dated 1993).
# Where two headings read alike, the source gives them in different places.
# Experiments:
# Assay type in all cases: in vivo
# 6C3HED lymphosarcoma = assay: animal or person
# VRC5 = conditions: oral
# Protocol: (§1) The compounds were tested in C3H mice bearing a 6C3HED lymphosarcoma, also known as the Gardner lymphosarcoma (GLS), and in a variety of human tumor xenografts in CD1 nu/nu mice, including CX-1, LX-1, HXGC3, and VRC5. The 6C3HED lymphosarcoma was obtained from the Division of Cancer Treatment, National […] Institute, Tumor Bank, maintained at E. G. and G. Mason Research (Worcester, Mass.). The CX-1 human colon carcinoma and the LX-1 human lung carcinoma xenografts were obtained from the National Cancer Institute. The HXGC3 and VRC5 human colon xenografts were obtained from Dr. P. J. Houghton, St. Jude Children's Hospital in Memphis (see Br. J. Cancer, 37, 213 (1978)). First passage tumor was stored in liquid nitrogen using standard techniques. The transplanted tumor was reestablished from the Tumor Bank every six months or as needed. The tumor was maintained by serial passage twice weekly in C3H mice.
# (§2) In the procedure the tumor was removed from passage animals and minced into 1- to 3-mm square fragments using sterile techniques. Tumor pieces were checked for sterility using both Antibiotic Medium 1 and Brain Heart Infusion (Difco, Detroit, Mich.). Recipient mice were shaved and tumor pieces were implanted subcutaneously in the auxiliary region by trocar. Drug therapy on the appropriate schedule was initiated on the day after tumor implant for 6C3HED and after a seven (7) day delay for xenografts (or other delay as noted in Table 2). The compound being tested was mixed with 2.5% Emulphor EL620 from GAF Corporation (1:40 dilution in saline). Food and water were provided ad libitium. The drug was administered orally in 0.5 ml of 2.5% Emulphor (unless otherwise indicated). The tumor was measured the day after treatment ended with two dimensional measurements (width and length) of the tumor taken using automated digital calipers interfaced to a microcomputer. Approximate weight for the tumor was calculated using the following formula [Worzalla, J. F., et al., Invest. New Drugs, 8, 241 (1990], (tumor weight in mg)=(width in mm)^2 ×(length in mm)/2.
# (§3) At least one control group of an equal number of mice was treated with the same volume of 2.5% Emulphor only. The percent inhibition was determined by subtracting the ratio of the mean tumor size of the test group relative to the control group from one and multiplying the result times 100.
# (§4) The results of several experiments in mice bearing a 6C3HED lymphosarcoma (or other tumor where indicated) when the indicated compounds were administered are provided in Table 2. In Table 2, column 1 gives the Example number of the compound used, column 2 lists the dose level in mg/kg, column 3 provides the percent inhibition of tumor growth, column 4 gives the number of mice which died relative to the total number of animals in the group, column 5 gives the method of administration of the compound, and column 6 gives the dosage schedule. The protocol used with other tumors was the same as with the 6C3HED lymphosarcoma.
# HC1 = system: HC1
# Protocol: as §1, §2, §3, §4
# LX1 = conditions: oral, DX 10, from day 7 after implant
# Protocol: as §1, §2, §3, §4
compound,measurement,setting,value
"CCCCN=S(=O)(NC(=O)Nc1ccc(Cl)cc1)c1ccc(C)cc1 (stereo not drawn) [Example 7, N-[[(4-chlorophenyl)amino]carbonyl]-N'-butyl-4-methylbenzenesulfonimidamide]",inhibition in vivo at 18.75 mg/kg,"6C3HED lymphosarcoma; Mus musculus, 6C3HED, po, read-out: % inhibition of tumor growth, oral, 18.75 mg/kg, BIDX 10",21%
same,inhibition in vivo at 37.5 mg/kg,"6C3HED lymphosarcoma; Mus musculus, 6C3HED, po, read-out: % inhibition of tumor growth, oral, 37.5 mg/kg, BIDX 10",45%
same,inhibition in vivo at 75 mg/kg,"6C3HED lymphosarcoma; Mus musculus, 6C3HED, po, read-out: % inhibition of tumor growth, oral, 75 mg/kg, BIDX 10",69%
same,inhibition in vivo at 150 mg/kg,"6C3HED lymphosarcoma; Mus musculus, 6C3HED, po, read-out: % inhibition of tumor growth, oral, 150 mg/kg, BIDX 10",88%
same,Tox/Tot (mice which died / total),"6C3HED lymphosarcoma; oral, 18.75 mg/kg, BIDX 10",0/10
same,Tox/Tot (mice which died / total),"6C3HED lymphosarcoma; oral, 37.5 mg/kg, BIDX 10",0/10
same,Tox/Tot (mice which died / total),"6C3HED lymphosarcoma; oral, 75 mg/kg, BIDX 10",0/10
same,Tox/Tot (mice which died / total),"6C3HED lymphosarcoma; oral, 150 mg/kg, BIDX 10",0/10
same,% inhibition of tumor growth,"VRC5; 50 mg/kg, BIDX 10",0%
same,Tox/Tot (mice which died / total),"VRC5; 50 mg/kg, BIDX 10",0/10
NS(=O)(=NC(=O)Nc1ccc(Cl)cc1)c1ccc(CO)cc1 (stereo not drawn) [Example 50],Tox/Tot (mice which died / total),"6C3HED lymphosarcoma; IP, 5 mg/kg, BIDX 8",0/10
same,Tox/Tot (mice which died / total),"6C3HED lymphosarcoma; IP, 10 mg/kg, BIDX 8",0/10
same,Tox/Tot (mice which died / total),"6C3HED lymphosarcoma; IP, 20 mg/kg, BIDX 8",0/10
same,Tox/Tot (mice which died / total),"6C3HED lymphosarcoma; IP, 40 mg/kg, BIDX 8",1/10
same,Tox/Tot (mice which died / total),"6C3HED lymphosarcoma; IP, 75 mg/kg, BIDX 8",0/10
same,Tox/Tot (mice which died / total),"6C3HED lymphosarcoma; IP, 150 mg/kg, BIDX 8",0/10
same,Tox/Tot (mice which died / total),"6C3HED lymphosarcoma; IP, 150 mg/kg, DX 8",0/10
same,Tox/Tot (mice which died / total),"6C3HED lymphosarcoma; IP, 300 mg/kg, BIDX 8",9/10
same,Tox/Tot (mice which died / total),"6C3HED lymphosarcoma; IP, 300 mg/kg, DX 8",1/10
same,inhibition in vivo at 5 mg/kg,"6C3HED lymphosarcoma; Mus musculus, 6C3HED, ip, read-out: % inhibition of tumor growth, IP, 5 mg/kg, BIDX 8",34%
same,inhibition in vivo at 10 mg/kg,"6C3HED lymphosarcoma; Mus musculus, 6C3HED, ip, read-out: % inhibition of tumor growth, IP, 10 mg/kg, BIDX 8",49%
same,inhibition in vivo at 20 mg/kg,"6C3HED lymphosarcoma; Mus musculus, 6C3HED, ip, read-out: % inhibition of tumor growth, IP, 20 mg/kg, BIDX 8",72%
same,inhibition in vivo at 40 mg/kg,"6C3HED lymphosarcoma; Mus musculus, 6C3HED, ip, read-out: % inhibition of tumor growth, IP, 40 mg/kg, BIDX 8",86%
same,inhibition in vivo at 75 mg/kg,"6C3HED lymphosarcoma; Mus musculus, 6C3HED, ip, read-out: % inhibition of tumor growth, IP, 75 mg/kg, BIDX 8",96%
same,inhibition in vivo at 150 mg/kg,"6C3HED lymphosarcoma; Mus musculus, 6C3HED, ip, read-out: % inhibition of tumor growth, IP, 150 mg/kg, BIDX 8",99%
same,inhibition in vivo at 150 mg/kg,"6C3HED lymphosarcoma; Mus musculus, 6C3HED, ip, read-out: % inhibition of tumor growth, IP, 150 mg/kg, DX 8",93%
same,inhibition in vivo at 300 mg/kg,"6C3HED lymphosarcoma; Mus musculus, 6C3HED, ip, read-out: % inhibition of tumor growth, IP, 300 mg/kg, BIDX 8",100%
same,inhibition in vivo at 300 mg/kg,"6C3HED lymphosarcoma; Mus musculus, 6C3HED, ip, read-out: % inhibition of tumor growth, IP, 300 mg/kg, DX 8",99%
same,inhibition in vivo at 75 mg/kg,"6C3HED lymphosarcoma; Mus musculus, 6C3HED, po, read-out: % inhibition of tumor growth, oral, 75 mg/kg, BIDX 8",99%
same,inhibition in vivo at 150 mg/kg,"6C3HED lymphosarcoma; Mus musculus, 6C3HED, po, read-out: % inhibition of tumor growth, oral, 150 mg/kg, BIDX 8",100%
same,inhibition in vivo at 300 mg/kg,"6C3HED lymphosarcoma; Mus musculus, 6C3HED, po, read-out: % inhibition of tumor growth, oral, 300 mg/kg, BIDX 8",100%
same,Tox/Tot (mice which died / total),"6C3HED lymphosarcoma; oral, 75 mg/kg, BIDX 8",2/10
same,Tox/Tot (mice which died / total),"6C3HED lymphosarcoma; oral, 150 mg/kg, BIDX 8",2/10
same,Tox/Tot (mice which died / total),"6C3HED lymphosarcoma; oral, 300 mg/kg, BIDX 8",9/10
same,% inhibition of tumor growth,"HC1; IP 0.6 ml, 5 mg/kg, BIDX 14",6%
same,Tox/Tot (mice which died / total),"HC1; IP 0.6 ml, 5 mg/kg, BIDX 14",0/10
same,% inhibition of tumor growth,"HC1; IP 0.6 ml, 10 mg/kg, BIDX 14",31%
same,Tox/Tot (mice which died / total),"HC1; IP 0.6 ml, 10 mg/kg, BIDX 14",0/10
same,% inhibition of tumor growth,"HC1; IP 0.6 ml, 20 mg/kg, BIDX 14",33%
same,Tox/Tot (mice which died / total),"HC1; IP 0.6 ml, 20 mg/kg, BIDX 14",0/10
same,% inhibition of tumor growth,"HC1; IP 0.6 ml, 40 mg/kg, BIDX 14",71%
same,Tox/Tot (mice which died / total),"HC1; IP 0.6 ml, 40 mg/kg, BIDX 14",1/10
same,% inhibition of tumor growth,"HC1; oral, 75 mg/kg, BIDX 10",46%
same,Tox/Tot (mice which died / total),"HC1; oral, 75 mg/kg, BIDX 10",0/9
same,% inhibition of tumor growth,"HC1; oral, 150 mg/kg, BIDX 10",23%
same,Tox/Tot (mice which died / total),"HC1; oral, 150 mg/kg, BIDX 10",2/9
same,% inhibition of tumor growth,LX1; 150 mg/kg,32%
same,Tox/Tot (mice which died / total),LX1; 150 mg/kg,0/10
same,% inhibition of tumor growth,LX1; 300 mg/kg,34%
same,Tox/Tot (mice which died / total),LX1; 300 mg/kg,0/10
same,% inhibition of tumor growth,"VRC5; 150 mg/kg, DX 10",27%
same,Tox/Tot (mice which died / total),"VRC5; 150 mg/kg, DX 10",0/10
same,% inhibition of tumor growth,"VRC5; 300 mg/kg, DX 10",59%
same,Tox/Tot (mice which died / total),"VRC5; 300 mg/kg, DX 10",0/10
